Reference: US20070203091A1, “Methods and therapeutic compositions for improving liver, blood flow and skeletal muscle functions in advanced diseases and aging” (priority 2006, published 2007)
Entries after “also recorded” stand apart in the source; their conditions may differ. Read-outs that look alike come from different tables or passages of the source.

Key:
[1] = ATP pharmacokinetics: total blood (red blood cell) ATP level, Phase I study, 8 hour intravenous infusion; format: in vivo, human
Protocol: (§1) The solution was administered by continuous intravenous infusions using an Ivac or similar infusion device through venous access in a peripheral vein. If venous access was a problem, either a Hickman catheter or its equivalent, or an Infusaport or its equivalent was inserted to provide vascular access.
(§2) The 50 μg/kg/min dose could be reduced to 25 μg/kg/min if adverse effects occurred. […] Succeeding infusions in that patient were at the infusion dose tolerated at the end of the previous treatment. If adverse events occurred in patients being infused at 25 μg/kg/min, the infusions were terminated and the patient received no additional infusions.

[2] = ATP pharmacokinetics: initial ATP release rate from red blood cells into blood plasma, Phase I study; format: in vivo, human
Protocol: as §1, §2

[3] = Cachexia markers Part II: blood TNF-alpha, Interleukin-6, Phase I study; format: in vivo, human
Excerpt: TNF-alpha is an acknowledged independent negative prognostic factor of morbidity and mortality in the elderly (30).

[4] = cited from earlier work
[5] = Week 1 (infusion 1), 4 hours into infusion
[6] = Week 1 (infusion 1), 8 hours (before the end)
[7] = Week 1 (infusion 1), 8.25 hours
[8] = Week 1 (infusion 1), Time 0 (pre-infusion)
[9] = Week 3 (Infusion 3), 4 hours into infusion
[10] = Week 3 (Infusion 3), 8 hours before the end
[11] = Week 3 (Infusion 3), Time 0 (pre-infusion)
[12] = Week 8 (infusion 8), 4 hours into infusion
[13] = Week 8 (infusion 8), 8 hours (before the end)
[14] = Week 8 (infusion 8), Time 0 (pre-infusion)
[15] = ATP infusion rate 500-1000 μg/kg/min
[16] = ATP infusion rate ≦100 μg/kg/min

Nc1ncnc2c1ncn2[C@@H]1O[C@H](COP(=O)(O)OP(=O)(O)OP(=O)(O)O)[C@@H](O)[C@H]1O [ATP, adenosine 5′-triphosphate]
total blood (red blood cell) ATP levels ([1]; ATP continuously for eight hours): increases | ATP Level Mean [1, 5]: 0.808 mM | ATP Level Median [1, 5]: 0.745 mM | ATP Level Mean [1, 6]: 0.896 mM | ATP Level Median [1, 6]: 0.770 mM | ATP Level Mean [1, 7]: 0.860 mM | ATP Level Median [1, 7]: 0.860 mM | ATP Level Mean ([1]; Week 1 (infusion 1), 9 hours): 0.912 mM | ATP Level Median ([1]; Week 1 (infusion 1), 9 hours): 0.765 mM | ATP Level Mean ([1]; Week 1 (infusion 1), 10 hours): 0.826 mM | ATP Level Median ([1]; Week 1 (infusion 1), 10 hours): 0.735 mM | ATP Level Mean ([1]; Week 1 (infusion 1), 11 hours): 0.828 mM | ATP Level Median ([1]; Week 1 (infusion 1), 11 hours): 0.680 mM | ATP Level Mean ([1]; Week 1 (infusion 1), 12 hours): 0.845 mM | ATP Level Median ([1]; Week 1 (infusion 1), 12 hours): 0.690 mM | ATP Level Mean ([1]; Week 1 (infusion 1), 14 hours): 0.857 mM | ATP Level Median ([1]; Week 1 (infusion 1), 14 hours): 0.730 mM | ATP Level Mean ([1]; Week 1 (infusion 1), 16 hours): 0.905 mM | ATP Level Median ([1]; Week 1 (infusion 1), 16 hours): 0.755 mM | ATP Level Mean ([1]; Week 1 (infusion 1), 20 hours): 0.772 mM | ATP Level Median ([1]; Week 1 (infusion 1), 20 hours): 0.670 mM | ATP Level Mean ([1]; Week 1 (infusion 1), 24 hours): 0.715 mM | ATP Level Median ([1]; Week 1 (infusion 1), 24 hours): 0.620 mM | ATP Level Mean [1, 8]: 0.615 mM | ATP Level Median [1, 8]: 0.550 mM | ATP Level Mean ([1]; Week 1 (infusion 1), […]): 0.895 mM | ATP Level Median ([1]; Week 1 (infusion 1), […]): 0.810 mM | ATP Level Mean [1, 9]: 0.843 mM | ATP Level Median [1, 9]: 0.540 mM | ATP Level Mean [1, 10]: 0.955 mM | ATP Level Median [1, 10]: 0.770 mM | ATP Level Mean ([1]; Week 3 (Infusion 3), 9 hours): 0.908 mM | ATP Level Median ([1]; Week 3 (Infusion 3), 9 hours): 0.950 mM | ATP Level Mean ([1]; Week 3 (Infusion 3), 10 hours): 0.906 mM | ATP Level Median ([1]; Week 3 (Infusion 3), 10 hours): 1.000 mM | ATP Level Mean ([1]; Week 3 (Infusion 3), 11 hours): 0.885 mM | ATP Level Median ([1]; Week 3 (Infusion 3), 11 hours): 0.670 mM | ATP Level Mean ([1]; Week 3 (Infusion 3), 12 hours): 0.903 mM | ATP Level Median ([1]; Week 3 (Infusion 3), 12 hours): 0.820 mM | ATP Level Mean ([1]; Week 3 (Infusion 3), 14 hours): 0.853 mM | ATP Level Median ([1]; Week 3 (Infusion 3), 14 hours): 0.600 mM | ATP Level Mean ([1]; Week 3 (Infusion 3), 16 hours): 0.859 mM | ATP Level Median ([1]; Week 3 (Infusion 3), 16 hours): 0.740 mM | ATP Level Mean ([1]; Week 3 (Infusion 3), 20 hours): 0.851 mM | ATP Level Median ([1]; Week 3 (Infusion 3), 20 hours): 0.610 mM | ATP Level Mean ([1]; Week 3 (Infusion 3), 24 hours): 0.687 mM | ATP Level Median ([1]; Week 3 (Infusion 3), 24 hours): 0.580 mM | ATP Level Mean [1, 11]: 0.610 mM | ATP Level Median [1, 11]: 0.560 mM | ATP Level Mean ([1]; Week 3 (Infusion 3), […]): 0.989 mM | ATP Level Median ([1]; Week 3 (Infusion 3), […]): 0.960 mM | ATP Level Mean [1, 12]: 0.702 mM | ATP Level Median [1, 12]: 0.770 mM | ATP Level Mean [1, 13]: 0.826 mM | ATP Level Median [1, 13]: 0.890 mM | ATP Level Mean ([1]; Week 8 (infusion 8), 9 hours): 1.030 mM | ATP Level Median ([1]; Week 8 (infusion 8), 9 hours): 1.155 mM | ATP Level Mean ([1]; Week 8 (infusion 8), 10 hours): 0.963 mM | ATP Level Median ([1]; Week 8 (infusion 8), 10 hours): 1.080 mM | ATP Level Mean ([1]; Week 8 (infusion 8), 11 hours): 0.973 mM | ATP Level Median ([1]; Week 8 (infusion 8), 11 hours): 1.010 mM | ATP Level Mean ([1]; Week 8 (infusion 8), 12 hours): 0.925 mM | ATP Level Median ([1]; Week 8 (infusion 8), 12 hours): 1.050 mM | ATP Level Mean ([1]; Week 8 (infusion 8), 14 hours): 0.980 mM | ATP Level Median ([1]; Week 8 (infusion 8), 14 hours): 0.950 mM | ATP Level Mean ([1]; Week 8 (infusion 8), 16 hours): 0.894 mM | ATP Level Median ([1]; Week 8 (infusion 8), 16 hours): 0.700 mM | ATP Level Mean ([1]; Week 8 (infusion 8), 20 hours): 0.960 mM | ATP Level Median ([1]; Week 8 (infusion 8), 20 hours): 0.900 mM | ATP Level Mean ([1]; Week 8 (infusion 8), 24 hours): 0.708 mM | ATP Level Median ([1]; Week 8 (infusion 8), 24 hours): 0.750 mM | ATP Level Mean [1, 14]: 0.573 mM | ATP Level Median [1, 14]: 0.560 mM | ATP Level Mean ([1]; Week 8 (infusion 8), […]): 1.000 mM | ATP Level Median ([1]; Week 8 (infusion 8), […]): 0.980 mM | Increases in total blood ATP pools ([1]; patients 502-505, weeks 1, 3 and 8, time 0 to 8 hours (end of the infusions)): 70-90% | Initial ATP Release Rates Mean [2, 5]: 33.407 nM/min | Initial ATP Release Rates Mean [2, 6]: 47.224 nM/min | Initial ATP Release Rates Mean [2, 7]: 10.400 nM/min | Initial ATP Release Rates Mean ([2]; Week 1 (infusion 1), 9 hours): 25.408 nM/min | Initial ATP Release Rates Mean ([2]; Week 1 (infusion 1), 10 hours): 13.959 nM/min | Initial ATP Release Rates Mean ([2]; Week 1 (infusion 1), 11 hours): 14.743 nM/min | Initial ATP Release Rates Mean ([2]; Week 1 (infusion 1), 12 hours): 12.565 nM/min | Initial ATP Release Rates Mean ([2]; Week 1 (infusion 1), 14 hours): 12.067 nM/min | Initial ATP Release Rates Mean ([2]; Week 1 (infusion 1), 16 hours): 15.331 nM/min | Initial ATP Release Rates Mean ([2]; Week 1 (infusion 1), 20 hours): 20.063 nM/min | Initial ATP Release Rates Mean ([2]; Week 1 (infusion 1), 24 hours): 17.452 nM/min | Initial ATP Release Rates Mean [2, 8]: 15.469 nM/min | Initial ATP Release Rates Mean ([2]; Week 1 (infusion 1), […]): 41.353 nM/min | Initial ATP Release Rates Mean [2, 9]: 55.414 nM/min | Initial ATP Release Rates Mean [2, 10]: 48.283 nM/min | Initial ATP Release Rates Mean ([2]; Week 3 (Infusion 3), 8.25 hours): 13.400 nM/min | Initial ATP Release Rates Mean ([2]; Week 3 (Infusion 3), 9 hours): 34.992 nM/min | Initial ATP Release Rates Mean ([2]; Week 3 (Infusion 3), 10 hours): 27.342 nM/min | Initial ATP Release Rates Mean ([2]; Week 3 (Infusion 3), 11 hours): 18.888 nM/min | Initial ATP Release Rates Mean ([2]; Week 3 (Infusion 3), 12 hours): 14.660 nM/min | Initial ATP Release Rates Mean ([2]; Week 3 (Infusion 3), 14 hours): 10.390 nM/min | Initial ATP Release Rates Mean ([2]; Week 3 (Infusion 3), 16 hours): 10.223 nM/min | Initial ATP Release Rates Mean ([2]; Week 3 (Infusion 3), 20 hours): 11.708 nM/min | Initial ATP Release Rates Mean ([2]; Week 3 (Infusion 3), 24 hours): 15.880 nM/min | Initial ATP Release Rates Mean [2, 11]: 18.228 nM/min | Initial ATP Release Rates Mean ([2]; Week 3 (Infusion 3), […]): 38.780 nM/min | Initial ATP Release Rates Mean [2, 12]: 28.700 nM/min | Initial ATP Release Rates Mean [2, 13]: 27.930 nM/min | Initial ATP Release Rates Mean ([2]; Week 8 (infusion 8), 9 hours): 20.167 nM/min | Initial ATP Release Rates Mean ([2]; Week 8 (infusion 8), 10 hours): 5.803 nM/min | Initial ATP Release Rates Mean ([2]; Week 8 (infusion 8), 11 hours): 15.700 nM/min | Initial ATP Release Rates Mean ([2]; Week 8 (infusion 8), 12 hours): 14.150 nM/min | Initial ATP Release Rates Mean ([2]; Week 8 (infusion 8), 14 hours): 19.620 nM/min | Initial ATP Release Rates Mean ([2]; Week 8 (infusion 8), 16 hours): 11.680 nM/min | Initial ATP Release Rates Mean ([2]; Week 8 (infusion 8), 20 hours): 14.520 nM/min | Initial ATP Release Rates Mean ([2]; Week 8 (infusion 8), 24 hours): 16.200 nM/min | Initial ATP Release Rates Mean [2, 14]: 10.967 nM/min | Initial ATP Release Rates Mean ([2]; Week 8 (infusion 8), […]): 11.267 nM/min | average increases in Initial ATP Release Rates (from Red Blood Cells) ([2]; patients 502-505, time 0 to 8 hours): 200-400% | Interleukin-6 levels ([3]; upon ATP treatment): not stabilized | levels of blood tumor necrosis factor-alpha (TNF-alpha) ([3]; week 13): stabilize | Cardiac Output [4, 15]: Increase | Heart Rate [4, 15]: Increase | Pulmonary Arterial Pressure [4, 15]: Decrease | Pulmonary Vascular Resistance [4, 15]: Decrease | Systemic Arterial Pressure [4, 15]: Decrease | Systemic Vascular Resistance [4, 15]: Decrease | Cardiac Output [4, 16]: Small Increase | Heart Rate [4, 16]: do not affect; also recorded: No Change | Pulmonary Arterial Pressure [4, 16]: No Change | Pulmonary Vascular Resistance [4, 16]: Decrease | Systemic Arterial Pressure [4, 16]: do not affect; also recorded: No Change | Systemic Vascular Resistance [4, 16]: Small Decrease
